Legend:
[1] = target: T1, B1R receptor of the rat (rB1R) (Rattus norvegicus, UniProt P97583); experiment: FLIPR Ca2+ assay on rB1R-transfected CHO K1 cells, antagonistic action; format: cell-based; conditions: agonist Des-Arg9-bradykinin 100 nM, % of maximum achievable inhibition; for inhibition at 10 µM: CHO-K1, 10 μM test substance, read-out: rB1R [10 μM] % inhibition
T1 construct: host or cells: CHO K1 cells
T1 sequence (P97583 1-337): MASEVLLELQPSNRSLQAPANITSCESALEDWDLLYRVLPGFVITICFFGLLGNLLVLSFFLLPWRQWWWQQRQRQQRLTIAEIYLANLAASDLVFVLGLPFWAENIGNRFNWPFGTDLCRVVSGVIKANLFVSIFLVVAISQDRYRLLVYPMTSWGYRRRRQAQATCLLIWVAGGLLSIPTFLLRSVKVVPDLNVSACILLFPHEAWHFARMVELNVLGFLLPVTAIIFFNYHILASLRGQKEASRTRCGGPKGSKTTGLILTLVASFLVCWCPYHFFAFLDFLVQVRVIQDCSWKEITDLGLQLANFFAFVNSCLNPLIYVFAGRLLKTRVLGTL

[2] = target: T2, human B1R receptor (hB1R) (Homo sapiens, UniProt P46663); experiment: FLIPR Ca2+ assay on hB1R-transfected CHO K1 cells, antagonistic action; format: cell-based; conditions: agonist Lys-Des-Arg9-bradykinin 0.5 nM, % of maximum achievable inhibition; for inhibition at 10 µM: CHO-K1, 10 μM test substance, read-out: hB1R [10 μM] % inhibition
T2 construct: host or cells: CHO K1 cells
T2 sequence (P46663 1-353): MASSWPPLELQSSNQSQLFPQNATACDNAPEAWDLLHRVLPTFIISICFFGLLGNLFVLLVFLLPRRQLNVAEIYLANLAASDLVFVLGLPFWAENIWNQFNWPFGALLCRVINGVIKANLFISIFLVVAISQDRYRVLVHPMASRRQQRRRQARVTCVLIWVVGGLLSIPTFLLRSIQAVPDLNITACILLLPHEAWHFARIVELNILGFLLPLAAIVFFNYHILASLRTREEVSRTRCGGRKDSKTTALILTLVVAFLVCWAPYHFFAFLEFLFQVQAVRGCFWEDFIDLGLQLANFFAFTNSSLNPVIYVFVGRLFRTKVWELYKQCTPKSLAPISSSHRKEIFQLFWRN

Structure (SMILES)	inhibition at 10 µM [1] [%]	inhibition at 10 µM [2] [%]	rB1R [10 μM] % inhibition ([1]; 10 μM test substance) [%]	hB1R [10 μM] % inhibition ([2]; 10 μM test substance) [%]
CN1CCN(C2(c3cccc(F)c3)CCN(C(=O)CCCC3CCCCN3S(=O)(=O)c3ccc4ccccc4c3)CC2)CC1 (centres unmarked) [Compound 216, 1-(4-(3-Fluorophenyl)-4-(4-methylpiperazin-1-yl)piperidin-1-yl)-4-(1-(naphthalen-2-ylsulfonyl)piperidin-2-yl)butan-1-one]	95	100	–	–
CN1CCN(C2(Cc3ccccc3)CCC(CN(C)C(=O)COCCN(C)S(=O)(=O)c3c(Cl)cc(Cl)cc3Cl)CC2)CC1 (centres unmarked) [Compound 186, N-((4-benzyl-4-(4-methylpiperazin-1-yl)cyclohexyl)methyl)-N-methyl-2-(2-(2,4,6-trichloro-N-methylphenylsulfonamido)ethoxy)acetamide]	64	97	–	–
CN(CCC1CCC(Cc2ccccc2)(N2CCCC2)CC1)C(=O)CC1CCCCN1S(=O)(=O)c1cccc(C(F)(F)F)c1 (centres unmarked) [Compound 121, N-(2-(4-benzyl-4-(pyrrolidin-1-yl)cyclohexyl)ethyl)-N-methyl-2-(1-(3-(trifluoromethyl)phenylsulfonyl)piperidin-2-yl)acetamide]	66	102	–	–
COc1cc(C)c(S(=O)(=O)N2CCCCC2COCC(=O)N2CCC(c3ccccc3)(N3CCN(C)CC3)CC2)c(C)c1 (centres unmarked) [Compound 49, 2-((1-(4-methoxy-2,6-dimethylphenylsulfonyl)piperidin-2-yl)methoxy)-1-(4-(4-methylpiperazin-1-yl)-4-phenylpiperidin-1-yl)ethanone]	100	103	–	–
CN(CCC1CCC(c2ccccc2)(N(C)C)CC1)C(=O)CC1CCCCN1S(=O)(=O)c1cccc(C(F)(F)F)c1 (centres unmarked) [Compound 125, N-(2-(4-(dimethylamino)-4-phenylcyclohexyl)ethyl)-N-methyl-2-(1-(3-(trifluoromethyl)phenylsulfonyl)piperidin-2-yl)acetamide]	56	98	–	–
COc1cc(C)c(S(=O)(=O)N(C)CCOCC(=O)N(C)CCC2CCC(CCc3ccccc3)(N3CCCC3)CC2)c(C)c1 (centres unmarked) [Compound 58, 2-(2-(4-methoxy-N,2,6-trimethylphenylsulfonamido)ethoxy)-N-methyl-N-(2-(4-phenethyl-4-(pyrrolidin-1-yl)cyclohexyl)ethyl)acetamide]	100	103	–	–
CN(CCCC1CCC(Cc2ccccc2)(N2CCCC2)CC1)C(=O)CC(NS(=O)(=O)c1ccc2ccccc2c1)c1ccccc1 (centres unmarked) [Compound 74, N-(3-(4-benzyl-4-(pyrrolidin-1-yl)cyclohexyl)propyl)-N-methyl-3-(naphthalene-2-sulfonamido)-3-phenylpropanamide]	99	102	–	–
O=C(COCC1CCc2ccccc2N1S(=O)(=O)c1ccc(Cl)c(Cl)c1)N1CCC(c2ccccc2)(N2CCN(c3ccncc3)CC2)CC1 (centres unmarked) [Compound 100, 2-((1-(3,4-dichlorophenylsulfonyl)-1,2,3,4-tetrahydroquinolin-2-yl)methoxy)-1-(4-phenyl-4-(4-(pyridin-4-yl)piperazin-1-yl)piperidin-1-yl)ethanone]	88	51	–	–
CN1CCN(C2(CCc3ccccc3)CCN(C(=O)CC(NS(=O)(=O)c3ccc4ccccc4c3)c3ccccc3)CC2)CC1 (centres unmarked) [Compound 55, N-(3-(4-(4-methylpiperazin-1-yl)-4-phenethylpiperidin-1-yl)-3-oxo-1-phenylpropyl)naphthalene-2-sulfonamide]	100	99	–	–
Cc1cc(S(=O)(=O)N2CCCCC2CCC(=O)N(C)CCC2CCC(c3ccccc3)(N3CCCC3)CC2)c(C)cc1Cl (centres unmarked) [Compound 139, 3-(1-(4-chloro-2,5-dimethylphenylsulfonyl)piperidin-2-yl)-N-methyl-N-(2-(4-phenyl-4-(pyrrolidin-1-yl)cyclohexyl)ethyl)propanamide]	24	105	–	–
COc1cc(C)c(S(=O)(=O)N(C)CCOCC(=O)NCC2CCC(Cc3ccccc3)(N3CCOCC3)CC2)c(C)c1 (centres unmarked) [Compound 188, N-((4-benzyl-4-morpholinocyclohexyl)methyl)-2-(2-(4-methoxy-N,2,6-trimethylphenylsulfonamido)ethoxy)acetamide]	63	95	–	–
COc1cc(C)c(S(=O)(=O)N2CCC(OCC(=O)NCC3CCC(c4ccccc4)(N4CCOCC4)CC3)C2)c(C)c1 (centres unmarked) [Compound 173, 2-(1-(4-methoxy-2,6-dimethylphenylsulfonyl)pyrrolidin-3-yloxy)-N-((4-morpholino-4-phenylcyclohexyl)methyl)acetamide]	78	64	–	–
COc1cc(C)c(S(=O)(=O)N2CCCCC2COCC(=O)N(C)CCC2CCC(CCc3ccccc3)(N(C)C)CC2)c(C)c1 (centres unmarked) [Compound 73, N-(2-(4-(dimethylamino)-4-phenethylcyclohexyl)ethyl)-2-((1-(4-methoxy-2,6-dimethylphenylsulfonyl)piperidin-2-yl)methoxy)-N-methylacetamide]	99	104	–	–
Cc1cc(S(=O)(=O)N2CCCCC2CCC(=O)N2CCC(c3ccccc3)(N(C)C)CC2)c(C)cc1Cl (centres unmarked) [Compound 123, 3-(1-(4-chloro-2,5-dimethylphenylsulfonyl)piperidin-2-yl)-1-(4-(dimethylamino)-4-phenylpiperidin-1-yl)propan-1-one]	60	103	–	–
COc1cc(C)c(S(=O)(=O)N(C)CCOCC(=O)N2CCC(c3ccccc3)(N3CCN(c4ccncc4)CC3)CC2)c(C)c1 [Compound 69, 4-methoxy-N,2,6-trimethyl-N-(2-(2-oxo-2-(4-phenyl-4-(4-(pyridin-4-yl)piperazin-1-yl)piperidin-1-yl)ethoxy)ethyl)benzenesulfonamide]	99	102	–	–
CN1CCN(C2(c3cccc(F)c3)CCN(C(=O)COCC3COc4ccccc4N3S(=O)(=O)c3ccccc3C(F)(F)F)CC2)CC1 (centres unmarked) [Compound 223, 1-(4-(3-Fluorophenyl)-4-(4-methylpiperazin-1-yl)piperidin-1-yl)-2-((4-(2-(trifluoromethyl)phenylsulfonyl)-3,4-dihydro-2H-benzo[b][1,4]oxazin-3-yl)methoxy)ethanone]	97	84	–	–
COc1cc(C)c(S(=O)(=O)N(C)CCOCC(=O)N2CCC(CCc3ccccc3)(N3CCN(C)CC3)CC2)c(C)c1 [Compound 87, 4-methoxy-N,2,6-trimethyl-N-(2-(2-(4-(4-methylpiperazin-1-yl)-4-phenethylpiperidin-1-yl)-2-oxoethoxy)ethyl)benzenesulfonamide]	98	99	–	–
O=C(COCC1CCCN1S(=O)(=O)c1c(Cl)cc(Cl)cc1Cl)NC1CCC(c2ccccc2)(N2CCCC2)CC1 (centres unmarked) [Compound 146, N-(4-phenyl-4-(pyrrolidin-1-yl)cyclohexyl)-2-((1-(2,4,6-trichlorophenylsulfonyl)pyrrolidin-2-yl)methoxy)acetamide]	108	64	–	–
COc1cc(C)c(S(=O)(=O)N2CCCCC2COCC(=O)N2CCC(c3ccccc3)(N(C)C)CC2)c(C)c1 (centres unmarked) [Compound 75, 1-(4-(dimethylamino)-4-phenylpiperidin-1-yl)-2-((1-(4-methoxy-2,6-dimethylphenylsulfonyl)piperidin-2-yl)methoxy)ethanone]	–	–	99	103
CN(CC1CCC(CCc2ccccc2)(N2CCCC2)CC1)C(=O)CC(NS(=O)(=O)c1ccc2ccccc2c1)c1ccccc1 (centres unmarked) [Compound 89, N-methyl-3-(naphthalene-2-sulfonamido)-N-((4-phenethyl-4-(pyrrolidin-1-yl)cyclohexyl)methyl)-3-phenylpropanamide]	98	92	–	–
COc1cc(C)c(S(=O)(=O)N(C)CCOCC(=O)N(C)CCCC2CCC(CCc3ccccc3)(N3CCCC3)CC2)c(C)c1 (centres unmarked) [Compound 91, 2-(2-(4-methoxy-N,2,6-trimethylphenylsulfonamido)ethoxy)-N-methyl-N-(3-(4-phenethyl-4-(pyrrolidin-1-yl)cyclohexyl)propyl)acetamide]	97	98	–	–
COc1cc(C)c(S(=O)(=O)N2CCCCC2COCC(=O)N2CCC(CCc3ccccc3)(N3CCN(C)CC3)CC2)c(C)c1 (centres unmarked) [Compound 77, 2-((1-(4-methoxy-2,6-dimethylphenylsulfonyl)piperidin-2-yl)methoxy)-1-(4-(4-methylpiperazin-1-yl)-4-phenethylpiperidin-1-yl)ethanone]	99	100	–	–

— patent US20090253669A1, “Substituted Sulfonamide Compounds” (GRUENENTHAL GmbH, priority 2008, published 2009)
